In patent publication US20100222322A1, “Non-Nucleoside Reverse Transcriptase Inhibitors” (MERCK & CO., INC., priority 2005, published 2010) one finds IC95 and IC50 data, which are given here for 13 molecules.

As usually defined, the IC95 is the concentration needed for an effect of 95%. A word on the IC50: it is the point on the concentration scale where inhibition reaches its midpoint.

Like-named read-outs stand apart in the source and are kept apart here. Some results are limits rather than exact numbers.

Experiment [1] relates to HIV replication in T-lymphoid cells. The experiment in a line: Spread assay: inhibition of acute HIV infection of T-lymphoid cells. The class given is cell-based. Particulars: Human immunodeficiency virus 1; acute HIV infection of T-lymphoid cells; tested up to 10 micromolar; read-out: IC95, spread assay (inhibition of HIV replication). As for the experimental part: An assay for the inhibition of acute HIV infection of T-lymphoid cells (alternatively referred to herein as the “spread assay”) was conducted in accordance with Vacca, J. P. et al., Proc. Natl. Acad. Sci. USA 1994, 91: 4096. […] The compounds of Examples 26, 29, 30, 33-35 and 62 were tested in the spread assay up to 10 micromolar, but specific IC95 values were not obtained; i.e., the IC95 values were greater than 10 micromolar. The compounds of Examples 47 and 61 were not tested.

Experiment [2] deals with T1, mutant HIV reverse transcriptase with the Y181C mutation (Human immunodeficiency virus type 1 group M subtype B, UniProt P04585, Y768C).
T1 construct: mutations that occur in the reverse transcriptase segment of the pol gene; made in house
The experiment in a line: Analogous RT inhibition assay, Y181C mutant. The experiment is classed as biochemical. As for the experimental part:
(§1) 100 μL reaction mixtures were initiated with a combination of primer-template substrate (10 nM final concentration) and dNTPs (0.6 μM dNTPs, 0.75 μM [^3H]-dGTP). The heterodimeric nucleic acid substrate was generated by annealing the DNA primer pD500 (described in Shaw-Reid et al., J. Biol. Chem., 278: 2777-2780; obtained from Integrated DNA Technologies) to t500, a 500 nucleotide RNA template created by in vitro transcription (see Shaw-Reid et al., J. Biol. Chem., 278: 2777-2780). After 1 hour incubation at 37° C., reactions were quenched by 10 μL streptavidin scintillation proximity assay beads (10 mg/mL, from Amersham Biosciences) in 0.5 M EDTA, pH 8. Microtiter plates were incubated an additional 10 minutes at 37° C. prior to quantification via Topcount (Packard).
(§2) Analogous assays were conducted substituting mutant HIV strains to determine the […] inhibition of compounds of the present invention against mutant HIV reverse transcriptase. In one strain the reverse transcriptase has the Y181C mutation and in the other strain the reverse transcriptase has the K103N mutation. The mutations were generated with the […] site-directed mutagenesis kit (Stratagene). […] The compounds set forth in the other Examples were not tested in the Y181C assay. […] The compounds set forth in the other Examples were not tested in the K103N assay.

The target in experiment [3] is T2, mutant HIV reverse transcriptase with the K103N mutation (Human immunodeficiency virus type 1 group M subtype B, UniProt P04585, K690N).
T2 construct: mutations that occur in the reverse transcriptase segment of the pol gene; made in house
Description: Analogous RT inhibition assay, K103N mutant. The class given is biochemical. As for the experimental part:
as §1, §2

The mark [4] stands for this setting: RT with Y181C mutation, tested up to 20 micromolar, read-out: IC50, Y181C mutant assay.
[5] abbreviates: RT with K103N mutation, tested up to 20 micromolar, read-out: IC50, K103N mutant assay.

On to `NC(=O)c1[nH]c2ccc(Cl)cc2c1S(=O)(=O)N1CCC(F)C1` (stereo not shown) [Example 38, 5-chloro-3-[(3-fluoropyrrolidin-1-yl)sulfonyl]-1H-indole-2-carboxamide], for which the IC95 in experiment [1] was under 1 µM. Moreover, the IC50 in experiment [2] (setting [4]) is under 1000 nM; in experiment [3], 1 to 20 µM.

Regarding `NC(=O)c1[nH]c2ccc(Br)cc2c1S(=O)(=O)NCC1CCCO1` (stereo not shown) [Example 18, 5-bromo-3-{[(tetrahydrofuran-2-ylmethyl)amino]sulfonyl}-1H-indole-2-carboxamide], the 95% effect concentration (IC95) in experiment [1] is under 1 µM. The IC50 in experiment [2] (setting [4]) is under 1000 nM; in experiment [3] (setting [5]), over 20 µM.

On to `O=C(NCc1c(F)cccc1Cl)c1[nH]c2ccc(Br)cc2c1S(=O)(=O)N1CCCC1` [Example 48, 5-bromo-N-(2-chloro-6-fluorobenzyl)-3-(pyrrolidin-1-ylsulfonyl)-1H-indole-2-carboxamide], for which, in experiment [1], the IC95 was under 1 µM. The figures for the concentration for half-maximal inhibition (IC50) in experiment [2] and in experiment [3] were under 1000 nM and under 1 µM, respectively.

Consider `NC(=O)c1[nH]c2ccc(Br)cc2c1S(=O)(=O)NCCS(N)(=O)=O` [Example 9, 3-({[2-(aminosulfonyl)ethyl]amino}sulfonyl)-5-bromo-1H-indole-2-carboxamide], for which the IC95 in experiment [1] is under 1 µM. Also, the IC50 in experiment [2] fell in the range of 1000 to 20000 nM; in experiment [3] it was 1 to 20 µM.

For `NC(=O)c1[nH]c2ccc(Cl)cc2c1S(=O)(=O)NC1CCCC1` [Example 4, 5-chloro-3-[(cyclopentylamino)sulfonyl]-1H-indole-2-carboxamide], the IC95 in experiment [1] is under 1 µM. For the same molecule, the IC50 was under 1000 nM in experiment [2] (setting [4]) and over 20 µM in experiment [3].

In the case of `O=C(NCc1cncs1)c1[nH]c2ccc(Br)cc2c1S(=O)(=O)N1CCCC1` [Example 65, 5-bromo-3-(pyrrolidin-1-ylsulfonyl)-N-(1,3-thiazol-5-ylmethyl)-1H-indole-2-carboxamide], the IC95 in experiment [1] was under 1 µM. For the same molecule, the IC50 in experiment [2] is under 1000 nM; in experiment [3] it was under 1 µM.

Take `NC(=O)c1[nH]c2ccc(Cl)cc2c1S(=O)(=O)N1CCCCC1` [Example 5, 5-chloro-3-(piperidin-1-ylsulfonyl)-1H-indole-2-carboxamide]: the IC95 in experiment [1] was under 1 µM. For the same molecule, the values for the half-maximal inhibitory concentration (IC50) in experiment [2] (setting [4]) and in experiment [3] were under 1000 nM and over 20 µM, respectively.

Regarding `O=C(NCc1ccncc1)c1[nH]c2ccc(Br)cc2c1S(=O)(=O)N1CCCC1` [Example 64, 5-bromo-N-(pyridin-4-ylmethyl)-3-(pyrrolidin-1-ylsulfonyl)-1H-indole-2-carboxamide], the IC95 in experiment [1] was under 1 µM. The IC50 in experiment [2] is under 1000 nM; in experiment [3], under 1 µM.

As to `NC(=O)c1[nH]c2ccc(Br)cc2c1S(=O)(=O)NC1CCCC1` [Example 17, 5-bromo-3-[(cyclopentylamino)sulfonyl]-1H-indole-2-carboxamide], the IC95 in experiment [1] was under 1 µM. The IC50 is under 1000 nM in experiment [2] (setting [4]) and over 20 µM in experiment [3] (setting [5]).

Consider `O=C(NCc1nccs1)c1[nH]c2ccc(Br)cc2c1S(=O)(=O)N1CCCC1` [Example 47, 5-Bromo-3-(pyrrolidin-1-ylsulfonyl)-N-(1,3-thiazol-2-ylmethyl)-1H-indole-2-carboxamide], for which the IC50 is under 1000 nM in experiment [2] (setting [4]) and under 1 µM in experiment [3] (setting [5]).

`NC(=O)c1[nH]c2ccc(Br)cc2c1S(=O)(=O)NC1CCCCC1` [Example 16, 5-bromo-3-[(cyclohexylamino)sulfonyl]-1H-indole-2-carboxamide]: in experiment [1], the IC95 was under 1 µM. The IC50 was under 1000 nM in experiment [2] (setting [4]) and over 20 µM in experiment [3] (setting [5]).

Turning to `CN(C1CC1)S(=O)(=O)c1c(C(N)=O)[nH]c2ccc(Br)cc12` [Example 8, 5-bromo-3-{[cyclopropyl(methyl)amino]sulfonyl}-1H-indole-2-carboxamide], the IC95 in experiment [1] was under 1 µM. The IC50 in experiment [2] was 1000 to 20000 nM; in experiment [3], over 20 µM.

Take `NC(=O)c1[nH]c2ccc(Cl)cc2c1S(=O)(=O)N1CCC(F)(F)C1` [Example 39, 5-chloro-3-[(3,3-difluoropyrrolidin-1-yl)sulfonyl]-1H-indole-2-carboxamide]: the IC95 in experiment [1] is under 1 µM. Moreover, in experiment [2] (setting [4]), the IC50 is under 1000 nM.
